± gives the standard deviation of the averaged measurements.
How the values were obtained:
Details in all cases: treatment time: 3 days
UT-SCC-81 [1] = test: relative IC50 (midpoint of the fitted curve; maximal inhibition may be below 50%); higher = less potent
Summary of the method: (§1)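 Using 384-well plates, 500 cells/well of HPV-negative HNSCC cell lines were grown on plastic, on 500 µg/mL Matrigel or Myogel coatings, or embedded in Matrigel or Myogel with rat collagen I. They were treated with compounds at five 10-fold concentrations for 3 days, and luminescence from CellTiter-Glo 2.0 was normalised to vehicle (0.1% DMSO) and cell-killing control wells. IC50, maximal inhibition and drug sensitivity score were derived from percent-inhibition dose–response curves in the FIMM pipeline.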

UT-SCC-24B [2] = test: as above
Summary of the method: as §1

UT-SCC-42A [3] = test: as above
Summary of the method: as §1

UT-SCC-14 [4] = test: as above
Summary of the method: as §1

UT-SCC-81 [5] = test: maximal % inhibition of viability relative to DMSO; higher = stronger effect
Experimental: (§2)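 HNSCC cell lines (500 cells/well, 384-well) were cultured on plastic, on top of (2D) or embedded (3D) in Matrigel or human leiomyoma matrix Myogel (500 ug/mL; Myogel 3D mixed with rat collagen I). Cells were treated for 3 days with 5 ten-fold concentrations of each drug, and viability was read by CellTiter-Glo. Viability was normalised to DMSO and benzethonium chloride controls and fitted with the FIMM DSRT pipeline to give IC50 (nM), maximal % inhibition and DSS. Suffixes _1/_2/_3 are replicates. Only inhibition-mode (IC50) fits are kept.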

UT-SCC-106A = test: as above
Experimental: as §2

UT-SCC-40 = test: as above
Experimental: as §2

UT-SCC-28 = test: as above
Experimental: as §2

UT-SCC-42B = test: as above
Experimental: as §2

UT-SCC-24B [6] = test: as above
Experimental: as §2

UT-SCC-73 = test: as above
Experimental: as §2

UT-SCC-42A [7] = test: as above
Experimental: as §2

UT-SCC-14 [8] = test: as above
Experimental: as §2

UT-SCC-8 = test: as above
Experimental: as §2

UT-SCC-44 = test: as above
Experimental: as §2

[9] = culture condition: on top of Matrigel
[10] = culture condition: plastic 2D (no matrix)
[11] = culture condition: embedded in Myogel + collagen I
[12] = culture condition: embedded in Matrigel
[13] = culture condition: on top of Myogel

Structure (SMILES): Cn1c(=O)c(F)c(Nc2ccc(I)cc2F)c2c(=O)n(C[C@@H](O)CO)cnc21 [TAK-733]
- relative IC50 (UT-SCC-81 [1]; [9]): 5.89 nM
- relative IC50 (UT-SCC-81 [1]; [10]): 151 nM
- relative IC50 (UT-SCC-24B [2]; [11]): 62.7 nM
- relative IC50 (UT-SCC-24B [2]; [9]): 39.5 nM
- relative IC50 (UT-SCC-42A [3]; [12]): 4.26 nM
- relative IC50 (UT-SCC-42A [3]; [11]): 11.3 nM
- relative IC50 (UT-SCC-42A [3]; [9]): 4.67 nM
- relative IC50 (UT-SCC-42A [3]; [10]): 9.23 nM
- relative IC50 (UT-SCC-14 [4]; [11]): 9.53 nM
- relative IC50 (UT-SCC-14 [4]; [9]): 14.3 nM
- relative IC50 (UT-SCC-14 [4]; [13]): 16.1 nM
- maximal % inhibition of viability (UT-SCC-81 [5]; [12]): 87.1 ± 4%
- maximal % inhibition of viability (UT-SCC-81 [5]; [11]): 25 ± 12%
- maximal % inhibition of viability (UT-SCC-81 [5]; [9]): 71.5 ± 6%
- maximal % inhibition of viability (UT-SCC-81 [5]; [13]): 24.3 ± 5.5%
- maximal % inhibition of viability (UT-SCC-81 [5]; [10]): 36.4 ± 2.3%
- maximal % inhibition of viability (UT-SCC-106A; [12]): 52.3 ± 2.4%
- maximal % inhibition of viability (UT-SCC-106A; [11]): 19 ± 5.5%
- maximal % inhibition of viability (UT-SCC-106A; [9]): 61.9 ± 4.9%
- maximal % inhibition of viability (UT-SCC-106A; [13]): 17.8 ± 1.7%
- maximal % inhibition of viability (UT-SCC-106A; [10]): 63.4 ± 1.2%
- maximal % inhibition of viability (UT-SCC-40; [12]): 78.2 ± 1.2%
- maximal % inhibition of viability (UT-SCC-40; [11]): 64 ± 2.1%
- maximal % inhibition of viability (UT-SCC-40; [9]): 72.9 ± 2.1%
- maximal % inhibition of viability (UT-SCC-40; [13]): 51 ± 0.89%
- maximal % inhibition of viability (UT-SCC-40; [10]): 53.7 ± 0.74%
- maximal % inhibition of viability (UT-SCC-28; [12]): 36.6 ± 7.2%
- maximal % inhibition of viability (UT-SCC-28; [11]): 22.7 ± 21%
- maximal % inhibition of viability (UT-SCC-28; [9]): 41.5 ± 1.7%
- maximal % inhibition of viability (UT-SCC-28; [10]): 25.6 ± 1%
- maximal % inhibition of viability (UT-SCC-42B; [12]): 71.3 ± 7.9%
- maximal % inhibition of viability (UT-SCC-42B; [9]): 54 ± 1.3%
- maximal % inhibition of viability (UT-SCC-42B; [13]): 30.2 ± 3.9%
- maximal % inhibition of viability (UT-SCC-42B; [10]): 38.4 ± 5.8%
- maximal % inhibition of viability (UT-SCC-24B [6]; [12]): 67.3 ± 1.5%
- maximal % inhibition of viability (UT-SCC-24B [6]; [11]): 67.2 ± 1.2%
- maximal % inhibition of viability (UT-SCC-24B [6]; [9]): 64.3 ± 1.3%
- maximal % inhibition of viability (UT-SCC-24B [6]; [13]): 55.5 ± 2.2%
- maximal % inhibition of viability (UT-SCC-24B [6]; [10]): 79.9 ± 1.1%
- maximal % inhibition of viability (UT-SCC-73; [12]): 79.1 ± 1.5%
- maximal % inhibition of viability (UT-SCC-73; [11]): 48.3 ± 16%
- maximal % inhibition of viability (UT-SCC-73; [9]): 74.1 ± 1%
- maximal % inhibition of viability (UT-SCC-73; [13]): 59.9 ± 4.8%
- maximal % inhibition of viability (UT-SCC-73; [10]): 68.4 ± 3.9%
- maximal % inhibition of viability (UT-SCC-42A [7]; [12]): 57.9 ± 2.6%
- maximal % inhibition of viability (UT-SCC-42A [7]; [11]): 41.5 ± 27%
- maximal % inhibition of viability (UT-SCC-42A [7]; [9]): 59.9 ± 5.2%
- maximal % inhibition of viability (UT-SCC-42A [7]; [13]): 42.1 ± 5.3%
- maximal % inhibition of viability (UT-SCC-42A [7]; [10]): 52.7 ± 3.6%
- maximal % inhibition of viability (UT-SCC-14 [8]; [12]): 42.3 ± 17%
- maximal % inhibition of viability (UT-SCC-14 [8]; [11]): 31.8 ± 2.2%
- maximal % inhibition of viability (UT-SCC-14 [8]; [9]): 33.3 ± 3.4%
- maximal % inhibition of viability (UT-SCC-14 [8]; [13]): 28.6 ± 2.2%
- maximal % inhibition of viability (UT-SCC-14 [8]; [10]): 20.4 ± 13%
- maximal % inhibition of viability (UT-SCC-8; [12]): 74.4 ± 12%
- maximal % inhibition of viability (UT-SCC-8; [11]): 35.5 ± 26%
- maximal % inhibition of viability (UT-SCC-8; [9]): 65.3 ± 12%
- maximal % inhibition of viability (UT-SCC-8; [13]): 46.8 ± 21%
- maximal % inhibition of viability (UT-SCC-8; [10]): 56.1 ± 17%
- maximal % inhibition of viability (UT-SCC-44; [12]): 75.4 ± 0.62%
- maximal % inhibition of viability (UT-SCC-44; [11]): 37.1 ± 8.1%
- maximal % inhibition of viability (UT-SCC-44; [9]): 64.6 ± 10%
- maximal % inhibition of viability (UT-SCC-44; [13]): 38.3 ± 4.8%
- maximal % inhibition of viability (UT-SCC-44; [10]): 53.6 ± 3.3%
